Laboratory results published in ChEMBL document CHEMBL5126518, “Quercetin derivatives: Drug design, development, and biological activities, a review” (Eur J Med Chem, 2022).
Converted amounts (≈) assume the structure as drawn.

Assays:
Staphylococcus aureus [1] = test: Antibiofilm activity against heteroresistant vancomycin-intermediate Staphylococcus aureus ATCC 700698 assessed as inhibition of biofilm formation incubated for 24 hrs by crystal violet staining based assay; type: functional, organism-based; settings: ATCC 700698, 24 h
[2] = Antioxidant activity assessed as DPPH radical scavenging activity up to 2 mM relative to control; type: functional
Pseudomonas aeruginosa [3] = test: In vivo antibacterial activity against carbapenem-susceptible Pseudomonas aeruginosa ATCC 27853 infected in CD-1 mouse assessed as mouse survival at 40 mg/kg per day administered for 7 days in presence of ceftazidime; type: functional; settings: time 7 day
Staphylococcus aureus [4] = test: Antibiofilm activity against methicillin resistant Staphylococcus aureus AMCSA 5016 assessed as inhibition of biofilm formation incubated for 24 hrs by crystal violet staining based assay; type: functional, organism-based; settings: AMCSA 5016, 24 h
Staphylococcus aureus [5] = test: Antibiofilm activity against vancomycin-intermediate Staphylococcus aureus ATCC 700699 assessed as inhibition of biofilm formation incubated for 24 hrs by crystal violet staining based assay; type: functional, organism-based; settings: ATCC 700699, 24 h
MCF7 = test: Induction of apoptosis in human MCF7 cells assessed as early apoptotic cells at 50 uM measured after 12 hrs by annexin V-FITC/propidium iodide staining based flow cytometry relative to control; type: functional
Pseudomonas aeruginosa [6] = test: Antibacterial activity against carbapenem-resistant Pseudomonas aeruginosa CCARM2321 assessed as fold reduction in ceftazidime MIC incubated for 20 hrs by checkerboard synergy test; type: functional
Acinetobacter baumannii = test: Antibacterial activity against carbapenem-resistant Acinetobacter baumannii AMC-AB 643 assessed as fold reduction in ceftazidime MIC incubated for 20 hrs by checkerboard synergy test; type: functional
Staphylococcus aureus [7] = test: Antibiofilm activity against methicillin sensitive Staphylococcus aureus ATCC 29213 assessed as inhibition of biofilm formation incubated for 24 hrs by crystal violet staining based assay; type: functional, organism-based; settings: ATCC 29213, 24 h
[8] = Competitive inhibition of xanthine oxidase (unknown origin) at 0.05 uM using xanthine as substrate preincubated with substrate for 1 min followed by compound addition by double beam spectrophotometer analysis relative to control
MDA-MB-231 [9] = test: Antiproliferative activity against human MDA-MB-231 cells assessed as cell growth inhibition measured after 48 hrs by MTT assay relative to control; type: functional; set-up: scale not given: the % may be the effect or the level left
MDA-MB-231 [10] = test: Antiproliferative activity against human MDA-MB-231 cells assessed as cell growth inhibition measured after 48 hrs by MTT assay; type: functional, cell-based; settings: MDA-MB-231, 48 h
[11] = Antioxidant activity assessed as DPPH radical scavenging activity after 30 mins under dark condition; type: functional
[12] = molecular target: UDP-galactopyranose mutase (Mycobacterium tuberculosis) (UniProt P9WIQ1); test: Inhibition of Mycobacterium tuberculosis UGM at 20 uM by HPLC inhibition assay relative to control
[13] = Cytotoxicity against MDCK cells assessed as reduction in cell viability incubated for 48 hrs by MTT assay; type: toxicity, cell-based, Canis lupus familiaris; settings: dog, read-out: CTD50
Influenza A virus [14] = test: Antiviral activity against Influenza A virus H1N1/pdm09 infected in MDCK cells pretreated with compound for 1 hr followed virus infection measured after 48 hrs; type: functional, organism-based
[15] = Selectivity index, ratio of CTD50 for cytotoxicity against MDCK cells to EC50 for antiviral activity against Influenza A H1N1/pdm09 infected in MDCK cells; type: toxicity, cell-based; settings: dog, read-out: Selectivity Index
[16] = Cytotoxicity against MDCK cells assessed as reduction in cell viability incubated for 48 hrs by SRB assay; type: toxicity, cell-based, Canis lupus familiaris; settings: dog
Influenza A virus [17] = test: Antiviral activity against influenza A/PR/8/34 H1N1 virus infected in MDCK cells assessed as cell growth inhibition measured after 48 hrs by SRB assay; type: functional, organism-based; settings: A/PR/8/34 H1N1, MDCK
HCT-116 [18] = test: Anticancer activity against human HCT-116 cells xenografted in mouse assessed as fold decrease in tumor growth measured after 3 weeks by digital caliper method; type: functional
Mus musculus = species on record: Mus musculus; test: Anticancer activity against ApcMin harboring mouse model assessed as fold increase in p53 expression measured after 16 weeks by […]; type: functional, Neoplasm
HCT-116 [19] = test: Antiproliferative activity against human HCT-116 cells assessed as cell growth inhibition by Z2 coulter counter based analysis; type: functional
[20] = Inhibition of Escherichia coli topoisomerase 4 decatenation activity by gel electrophoresis
[21] = Inhibition of Escherichia coli topoisomerase 2 supercoiling activity by gel electrophoresis
[22] = molecular target: Type-1 angiotensin II receptor (Homo sapiens, UniProt P30556); test: Inhibition of human AT1R expressed in HEK293 cells by non-linear regression analysis; type: cell-based
LN-229 = test: Antiproliferative activity against human LN-229 cells assessed as reduction in cell viability incubated for 48 hrs by SRB assay; type: functional
U-87 MG = test: Antiproliferative activity against human U87 cells assessed as reduction in cell viability incubated for 48 hrs by SRB assay; type: functional, U-87MG ATCC
Candida albicans [23] = test: Antifungal activity against Candida albicans 527/14 assessed as fungal growth inhibition measured after 24 hrs by microdilution assay; type: functional
Candida albicans [24] = test: Antifungal activity against Candida albicans 13/15 assessed as fungal growth inhibition measured after 24 hrs by microdilution assay; type: functional
Candida albicans [25] = test: Antifungal activity against Candida albicans 10/15 assessed as fungal growth inhibition measured after 24 hrs by microdilution assay; type: functional
MDA-MB-231 [26] = test: Antiproliferative activity against human MDA-MB-231 cells assessed as cell growth inhibition measured after 72 hrs by MTT assay; type: functional, cell-based; settings: MDA-MB-231, 72 h
Candida albicans [27] = test: Antifungal activity against Candida albicans 475/15 assessed as fungal growth inhibition measured after 24 hrs by microdilution assay; type: functional

Chain of UDP-galactopyranose mutase (Mycobacterium tuberculosis) (P9WIQ1 whole entry, looked up): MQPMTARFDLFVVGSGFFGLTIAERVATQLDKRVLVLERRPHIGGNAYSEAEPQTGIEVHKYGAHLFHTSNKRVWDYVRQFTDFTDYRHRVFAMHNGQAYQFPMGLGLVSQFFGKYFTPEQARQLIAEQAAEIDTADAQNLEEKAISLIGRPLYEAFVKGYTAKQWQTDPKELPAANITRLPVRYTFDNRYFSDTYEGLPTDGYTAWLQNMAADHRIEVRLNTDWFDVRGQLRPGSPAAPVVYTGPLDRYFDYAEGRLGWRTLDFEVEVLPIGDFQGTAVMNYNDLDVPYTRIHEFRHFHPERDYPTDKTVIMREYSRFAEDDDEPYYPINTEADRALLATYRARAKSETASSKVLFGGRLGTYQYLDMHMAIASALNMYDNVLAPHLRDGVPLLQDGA
Chain of Type-1 angiotensin II receptor (P30556 whole entry): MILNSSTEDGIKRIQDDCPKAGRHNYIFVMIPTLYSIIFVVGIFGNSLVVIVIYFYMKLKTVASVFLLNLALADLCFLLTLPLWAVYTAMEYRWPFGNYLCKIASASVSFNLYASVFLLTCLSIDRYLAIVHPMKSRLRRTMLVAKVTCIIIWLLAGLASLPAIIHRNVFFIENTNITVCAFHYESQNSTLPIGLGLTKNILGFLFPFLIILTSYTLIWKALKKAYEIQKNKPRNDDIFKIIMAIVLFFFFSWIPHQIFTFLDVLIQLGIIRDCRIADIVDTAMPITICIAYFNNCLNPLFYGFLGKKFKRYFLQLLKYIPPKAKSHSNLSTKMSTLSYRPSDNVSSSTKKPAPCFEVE

O=c1c(O)c(-c2ccc(F)c(F)c2)oc2cc(O)cc(O)c12
IC50 (Staphylococcus aureus [1]): 1.8 µg/mL (≈ 5.88 µM)
Activity [2]: 50%
Activity (Pseudomonas aeruginosa [3]): 20%
IC50 (Staphylococcus aureus [4]): 1.8 µg/mL (≈ 5.88 µM)
IC50 (Staphylococcus aureus [5]): 1.8 µg/mL (≈ 5.88 µM)
Activity (MCF7): 47.7%
fold change (FC) (Pseudomonas aeruginosa [6]): 8
fold change (FC) (Acinetobacter baumannii): 4
IC50 (Staphylococcus aureus [7]): 1.8 µg/mL (≈ 5.88 µM)

O=c1oc2c(O)ccc(-c3oc4cc(O)cc(O)c4c(=O)c3O)c2s1
inhibition [8]: 50%

COc1cc(OC)c2/c(=[S+]/C)c(OC)c(-c3ccc(OC)c(OC)c3)oc2c1.[I-]
Activity (MDA-MB-231 [9]): 38.1%
IC50 (MDA-MB-231 [10]): 1.84 µM
Activity [11]: 0.05 mM

O=c1c(O)c(-c2ccc(O)c(O)c2)oc2c(CN3CCOCC3)c(O)cc(O)c12
inhibition [12]: 100%

O=c1c(O)c(-c2ccc(O)c(O)c2)oc2c(CN3CCSCC3)c(O)cc(O)c12
inhibition [12]: 57.9%

CCOC1(Br)C(=O)c2c(O)c(Br)c(O)c(Br)c2OC1(Br)c1cc(O)c(O)c(Br)c1 (stereo not given)
CC50 at 48 h [13]: 97.7 µg/mL (≈ 134 µM)
EC50 (Influenza A virus [14]): 6 µg/mL (≈ 8.26 µM)
selectivity ratio [15]: 16

Nc1c(-c2ccc(O)c(O)c2)oc2cc(O)cc(O)c2c1=O
Activity [2]: 80%

O=c1c(O)c(-c2ccc(O)c(O)c2)oc2cc(O[C@H]3O[C@H](CO)[C@@H](O)[C@H](O)[C@H]3O)cc(O)c12
CC50 at 48 h [16]: > 100 µg/mL
IC50 (Influenza A virus [17]): 2.1 µg/mL (≈ 4.52 µM)

COc1cc(-c2oc3ccccc3c(=O)c2O)cc(OC)c1OC
fold change (FC) (HCT-116 [18]): 1.5
fold change (FC) (Mus musculus): 3
IC50 (HCT-116 [19]): 3.3 µM

COc1ccc(CNCc2c(O)cc(O)c3c(=O)cc(-c4ccc(O)c(O)c4)oc23)cc1
IC50 [20]: 0.25 µg/mL (≈ 0.574 µM)
IC50 [21]: 0.25 µg/mL (≈ 0.574 µM)

CCCCc1nc(Cl)c(COC(=O)CCC(=O)Oc2cc(-c3oc4cc(O)cc(O)c4c(=O)c3O)ccc2O)n1Cc1ccc(-c2ccccc2-c2nnn[nH]2)cc1
IC50 [22]: 0.14 µM
Activity (LN-229): 39%
Activity (U-87 MG): 38%

O=c1cc(-c2ccc(O)c(O)c2)oc2cc(O)cc(O)c12 [LUTEOLIN]
MIC (Candida albicans [23]): 37.5 µg/mL (≈ 131 µM)
MIC (Candida albicans [24]): 37.5 µg/mL (≈ 131 µM)
MIC (Candida albicans [25]): 37.5 µg/mL (≈ 131 µM)
IC50 (MDA-MB-231 [26]): 7.29 µM
MIC (Candida albicans [27]): 37.5 µg/mL (≈ 131 µM)

C[C@@H]1O[C@@H](OC[C@H]2O[C@@H](Oc3c(-c4ccc(O)c(O)c4)oc4c(CN5CCCC5)c(O)c(CN5CCCC5)c(O)c4c3=O)[C@H](O)[C@@H](O)[C@@H]2O)[C@H](O)[C@H](O)[C@H]1O
IC50 (MDA-MB-231 [26]): 7.57 µM
